# Key:
# Enterococcus faecalis [1] = assay: Antibacterial activity against vancomycin-sensitive Enterococcus faecalis 12-5 after 18 hrs by CLSI broth microdilution method; type: functional; details: 12-5, 18 h
# Klebsiella pneumoniae [2] = assay: Antibacterial activity against extended-spectrum beta-lactamase deficient Klebsiella pneumoniae 7 after 18 hrs by CLSI broth microdilution method; type: functional; details: Klebsiella pneumoniae, 7, 18 h
# Escherichia coli [3] = assay: Antibacterial activity against extended-spectrum beta-lactamase deficient Escherichia coli 1515 after 18 hrs by CLSI broth microdilution method; type: functional; details: Escherichia coli, 1515, 18 h
# Enterococcus faecalis [4] = assay: Antibacterial activity against vancomycin-resistant Enterococcus faecalis 09-9 after 18 hrs by CLSI broth microdilution method; type: functional; details: 09-9, 18 h
# Providencia rettgeri = assay: Antibacterial activity against Providencia rettgeri ATCC 31052 after 18 hrs by CLSI broth microdilution method; type: functional; details: ATCC 31052, 18 h
# Klebsiella pneumoniae [5] = assay: Antibacterial activity against extended-spectrum beta-lactamase harboring Klebsiella pneumoniae 12-8 after 18 hrs by CLSI broth microdilution method; type: functional; details: 12-8, 18 h
# [6] = system: Staphylococcus epidermidis; assay: Antibacterial activity against methicillin-resistant Staphylococcus epidermidis 12-8 after 18 hrs by CLSI broth microdilution method; type: functional; details: 12-8, 18 h
# Staphylococcus aureus [7] = assay: Antibacterial activity against methicillin-sensitive Staphylococcus aureus 15 after 18 hrs by CLSI broth microdilution method; type: functional; details: Staphylococcus aureus, 15, 18 h
# Enterococcus faecium [8] = assay: Antibacterial activity against vancomycin-resistant Enterococcus faecium ATCC 700221 after 18 hrs by CLSI broth microdilution method; type: functional; details: ATCC 700221, 18 h
# Staphylococcus aureus [9] = assay: Antibacterial activity against methicillin-sensitive Staphylococcus aureus 12-28 after 18 hrs by CLSI broth microdilution method; type: functional; details: 12-28, 18 h
# Escherichia coli [10] = assay: Antibacterial activity against extended-spectrum beta-lactamase harboring Escherichia coli 12-15 after 18 hrs by CLSI broth microdilution method; type: functional; details: 12-15, 18 h
# Klebsiella pneumoniae [11] = assay: Antibacterial activity against new delhi metallo-beta-lactamase-1 harboring Klebsiella pneumoniae ATCC BAA-2146 after 18 hrs by CLSI broth microdilution method; type: functional; details: ATCC BAA-2146, 18 h
# Proteus vulgaris = assay: Antibacterial activity against Proteus vulgaris ATCC 29905 after 18 hrs by CLSI broth microdilution method; type: functional; details: ATCC 29905, 18 h
# Escherichia coli [12] = assay: Antibacterial activity against extended-spectrum beta-lactamase deficient Escherichia coli 12-14 after 18 hrs by CLSI broth microdilution method; type: functional; details: 12-14, 18 h
# Citrobacter freundii = assay: Antibacterial activity against Citrobacter freundii ATCC 43864 after 18 hrs by CLSI broth microdilution method; type: functional; details: ATCC 43864, 18 h
# Escherichia coli [13] = assay: Antibacterial activity against extended-spectrum beta-lactamase deficient Escherichia coli ATCC 25922 after 18 hrs by CLSI broth microdilution method; type: functional; details: ATCC 25922, 18 h
# Enterococcus faecium [14] = assay: Antibacterial activity against vancomycin-resistant Enterococcus faecium 12-1 after 18 hrs by CLSI broth microdilution method; type: functional; details: 12-1, 18 h
# [15] = Cytotoxicity against HEK293T cells assessed as reduction in cell viability after 48 hrs by MTS assay; type: cell-based, HEK-293T; details: human
# Staphylococcus aureus [16] = assay: Antibacterial activity against methicillin-resistant Staphylococcus aureus 12-33 after 18 hrs by CLSI broth microdilution method; type: functional; details: 12-33, 18 h
# Enterobacter cloacae = assay: Antibacterial activity against Enterobacter cloacae ATCC 43560 after 18 hrs by CLSI broth microdilution method; type: functional; details: ATCC 43560, 18 h
# [17] = system: Stenotrophomonas maltophilia; assay: Antibacterial activity against Stenotrophomonas maltophilia ATCC 13636 after 18 hrs by CLSI broth microdilution method; type: functional; details: ATCC 13636, 18 h
# Klebsiella pneumoniae [18] = assay: Antibacterial activity against extended-spectrum beta-lactamase harboring Klebsiella pneumoniae ATCC 700603 after 18 hrs by CLSI broth microdilution method; type: functional; details: Klebsiella pneumoniae, 700603, 18 h
# Klebsiella pneumoniae [19] = assay: Antibacterial activity against extended-spectrum beta-lactamase deficient Klebsiella pneumoniae 12-4 after 18 hrs by CLSI broth microdilution method; type: functional; details: 12-4, 18 h
# Pseudomonas aeruginosa [20] = assay: Antibacterial activity against Pseudomonas aeruginosa PAO1 after 18 hrs by CLSI broth microdilution method; type: functional; details: PAO1, 18 h
# Serratia marcescens = assay: Antibacterial activity against Serratia marcescens ATCC 21074 after 18 hrs by CLSI broth microdilution method; type: functional; details: ATCC 21074, 18 h
# Enterococcus faecium [21] = assay: Antibacterial activity against vancomycin-sensitive Enterococcus faecium 12-3 after 18 hrs by CLSI broth microdilution method; type: functional; details: 12-3, 18 h
# [22] = system: Staphylococcus epidermidis; assay: Antibacterial activity against methicillin-sensitive Staphylococcus epidermidis ATCC 12228 after 18 hrs by CLSI broth microdilution method; type: functional; details: ATCC 12228, 18 h
# [23] = system: Staphylococcus epidermidis; assay: Antibacterial activity against methicillin-sensitive Staphylococcus epidermidis 12-6 after 18 hrs by CLSI broth microdilution method; type: functional; details: 12-6, 18 h
# Pseudomonas aeruginosa [24] = assay: Antibacterial activity against Pseudomonas aeruginosa 12-16 after 18 hrs by CLSI broth microdilution method; type: functional; details: 12-16, 18 h
# [25] = system: Acinetobacter calcoaceticus; assay: Antibacterial activity against Acinetobacter calcoaceticus ATCC 19606 after 18 hrs by CLSI broth microdilution method; type: functional; details: ATCC 19606, 18 h
# Klebsiella aerogenes = assay: Antibacterial activity against Enterobacter aerogenes ATCC 13048 after 18 hrs by CLSI broth microdilution method; type: functional; details: ATCC 13048, 18 h
# Pseudomonas aeruginosa [26] = assay: Antibacterial activity against Pseudomonas aeruginosa ATCC 27853 after 18 hrs by CLSI broth microdilution method; type: functional; details: ATCC 27853, 18 h
# Enterococcus faecalis [27] = assay: Antibacterial activity against vancomycin-resistant Enterococcus faecalis ATCC 51299 after 18 hrs by CLSI broth microdilution method; type: functional; details: ATCC 51299, 18 h
# Staphylococcus aureus [28] = assay: Antibacterial activity against methicillin-resistant Staphylococcus aureus ATCC 33591 after 18 hrs by CLSI broth microdilution method; type: functional; details: ATCC 33591, 18 h
# Staphylococcus aureus [29] = assay: Antibacterial activity against methicillin-sensitive Staphylococcus aureus ATCC 29213 after 18 hrs by CLSI broth microdilution method; type: functional; details: ATCC 29213, 18 h
# Enterococcus faecalis [30] = assay: Antibacterial activity against vancomycin-sensitive Enterococcus faecalis ATCC 29212 after 18 hrs by CLSI broth microdilution method; type: functional; details: ATCC 29212, 18 h
# Proteus mirabilis = assay: Antibacterial activity against Proteus mirabilis 12-6 after 18 hrs by CLSI broth microdilution method; type: functional; details: 12-6, 18 h
Compound,MIC (Enterococcus faecalis [1]) [µg/mL],MIC (Klebsiella pneumoniae [2]) [µg/mL],MIC (Escherichia coli [3]) [µg/mL],MIC (Enterococcus faecalis [4]) [µg/mL],MIC (Providencia rettgeri) [µg/mL],MIC (Klebsiella pneumoniae [5]) [µg/mL],MIC [6] [µg/mL],MIC (Staphylococcus aureus [7]) [µg/mL],MIC (Enterococcus faecium [8]) [µg/mL],MIC (Staphylococcus aureus [9]) [µg/mL],MIC (Escherichia coli [10]) [µg/mL],MIC (Klebsiella pneumoniae [11]) [µg/mL],MIC (Proteus vulgaris) [µg/mL],MIC (Escherichia coli [12]) [µg/mL],MIC (Citrobacter freundii) [µg/mL],MIC (Escherichia coli [13]) [µg/mL],MIC (Enterococcus faecium [14]) [µg/mL],CC50 at 48 h [15] [µg/mL],MIC (Staphylococcus aureus [16]) [µg/mL],MIC (Enterobacter cloacae) [µg/mL],further results
CCC(C)NC(=N)c1ccc2cc(-c3ccc(-c4cc5ccc(C(=N)NC(C)CC)cc5[nH]4)cc3)[nH]c2c1 (stereo not drawn),2,4,4,2,4,4,0.5,0.5,2,0.5,4,4,4,4,4,4,2,15.4,0.5,4,MIC [17]: 4 µg/mL; MIC (Klebsiella pneumoniae [18]): 8 µg/mL; MIC (Klebsiella pneumoniae [19]): 4 µg/mL; MIC (Pseudomonas aeruginosa [20]): 16 µg/mL; MIC (Serratia marcescens): 8 µg/mL; MIC (Enterococcus faecium [21]): 1 µg/mL; MIC [22]: 0.25 µg/mL; MIC [23]: 1 µg/mL; MIC (Pseudomonas aeruginosa [24]): 16 µg/mL; MIC [25]: 16 µg/mL; MIC (Klebsiella aerogenes): 4 µg/mL; MIC (Pseudomonas aeruginosa [26]): 4 µg/mL; MIC (Enterococcus faecalis [27]): 2 µg/mL; MIC (Staphylococcus aureus [28]): 0.5 µg/mL; MIC (Staphylococcus aureus [29]): 0.5 µg/mL; MIC (Enterococcus faecalis [30]): 1 µg/mL; MIC (Proteus mirabilis): 16 µg/mL
CN(C)C(=N)c1ccc2cc(-c3cncc(-c4cc5ccc(C(=N)N(C)C)cc5[nH]4)c3)[nH]c2c1,2,4,2,2,2,4,0.5,0.5,2,0.5,1,4,4,1,8,2,1,1.75,0.5,4,MIC [17]: 8 µg/mL; MIC (Klebsiella pneumoniae [18]): 8 µg/mL; MIC (Klebsiella pneumoniae [19]): 8 µg/mL; MIC (Pseudomonas aeruginosa [20]): > 64 µg/mL; MIC (Serratia marcescens): 16 µg/mL; MIC (Enterococcus faecium [21]): 2 µg/mL; MIC [22]: 0.25 µg/mL; MIC [23]: 0.25 µg/mL; MIC (Pseudomonas aeruginosa [24]): > 64 µg/mL; MIC [25]: 8 µg/mL; MIC (Klebsiella aerogenes): 4 µg/mL; MIC (Pseudomonas aeruginosa [26]): 16 µg/mL; MIC (Enterococcus faecalis [27]): 2 µg/mL; MIC (Staphylococcus aureus [28]): 0.5 µg/mL; MIC (Staphylococcus aureus [29]): 0.5 µg/mL; MIC (Enterococcus faecalis [30]): 2 µg/mL; MIC (Proteus mirabilis): 8 µg/mL
CN(C)CCCNC(=N)c1ccc2cc(-c3ccc(-c4cc5ccc(C(=N)NCCCN(C)C)cc5[nH]4)cc3)[nH]c2c1,8,8,8,4,8,8,2,4,4,4,8,8,16,8,8,4,4,27.7,4,8,MIC [17]: 8 µg/mL; MIC (Klebsiella pneumoniae [18]): 8 µg/mL; MIC (Klebsiella pneumoniae [19]): 8 µg/mL; MIC (Pseudomonas aeruginosa [20]): 8 µg/mL; MIC (Serratia marcescens): 8 µg/mL; MIC (Enterococcus faecium [21]): 8 µg/mL; MIC [22]: 2 µg/mL; MIC [23]: 4 µg/mL; MIC (Pseudomonas aeruginosa [24]): 32 µg/mL; MIC [25]: 128 µg/mL; MIC (Klebsiella aerogenes): 8 µg/mL; MIC (Pseudomonas aeruginosa [26]): 8 µg/mL; MIC (Enterococcus faecalis [27]): 4 µg/mL; MIC (Staphylococcus aureus [28]): 4 µg/mL; MIC (Staphylococcus aureus [29]): 4 µg/mL; MIC (Enterococcus faecalis [30]): 4 µg/mL; MIC (Proteus mirabilis): 128 µg/mL
CN(C)C(=N)c1ccc2cc(-c3ccc(-c4cc5ccc(C(=N)N(C)C)cc5[nH]4)nc3)[nH]c2c1,4,16,4,4,16,32,1,1,4,1,4,32,16,4,16,4,2,11.7,2,8,MIC [17]: 128 µg/mL; MIC (Klebsiella pneumoniae [18]): > 128 µg/mL; MIC (Klebsiella pneumoniae [19]): 32 µg/mL; MIC (Pseudomonas aeruginosa [20]): > 128 µg/mL; MIC (Serratia marcescens): > 128 µg/mL; MIC (Enterococcus faecium [21]): 4 µg/mL; MIC [22]: 0.5 µg/mL; MIC [23]: 2 µg/mL; MIC (Pseudomonas aeruginosa [24]): > 128 µg/mL; MIC [25]: > 128 µg/mL; MIC (Klebsiella aerogenes): 16 µg/mL; MIC (Pseudomonas aeruginosa [26]): 64 µg/mL; MIC (Enterococcus faecalis [27]): 4 µg/mL; MIC (Staphylococcus aureus [28]): 1 µg/mL; MIC (Staphylococcus aureus [29]): 1 µg/mL; MIC (Enterococcus faecalis [30]): 4 µg/mL; MIC (Proteus mirabilis): > 128 µg/mL

# From ChEMBL document CHEMBL4229379, “Synthesis and structure-activity relationship of novel bisindole amidines active against MDR Gram-positive and Gram-negative bacteria” (Eur J Med Chem, 2018)
